Assay results as given in patent US12678419B2, “Compounds” (Sitryx Therapeutics Limited, priority 2020, dated 2026).
pIC50: −log10 of the molar value. Values joined by “and” are separate entries in the source; they are usually repeats but may differ in a detail not shown here. Equal values may be shown once. Where a name gives a salt, the structure may show the parent alone.

Key:
[1] = system: IL-1β cytokine output from THP-1s; assay: THP-1 AlphaLISA IL-1β cytokine assay; type: cell-based
Experimental: (§1) The cytokine inhibition profiles of compounds of formula (I) were determined in a differentiated THP-1 cell assay. All assays were performed in RPMI-1640 growth medium (Gibco), supplemented with 10% fetal bovine serum (FBS; Gibco), 1% penicillin-streptomycin and 1% sodium pyruvate unless specified otherwise. The IL-1β and IL-6 cytokine inhibition assays were each run in a background of differentiated THP-1 cells as described below. All reagents described were from Sigma-Aldrich unless specified otherwise. Compounds were prepared as 10 mM DMSO stocks.
(§2) THP-1 cells were expanded as a suspension up to 80% confluence in appropriate growth medium. Cells were harvested, suspended, and treated with an appropriate concentration of phorbol 12-myristate 13-acetate (PMA) over a 72 hr period (37° C./5% CO2).
(§3) Following 72 hrs of THP-1 cell incubation, cellular medium was removed and replaced with fresh growth media containing 1% of FBS. Working concentrations of compounds were prepared separately in 10% FBS treated growth medium and pre-incubated with the cells for 30 minutes (37° C./5% CO2). Following the 30 minute compound pre-incubation, THP-1s were treated with an appropriate concentration of LPS and the THP-1s were subsequently incubated for a 24 hr period (37° C./5% CO2). An appropriate final concentration of Nigericin was then dispensed into the THP-1 plates and incubated for 1 hour (37° C./5% CO2) before THP-1 supernatants were harvested and collected in separate polypropylene 96-well holding plates.
(§4) Reagents from each of the IL-1β and IL-6 commercial kits (Perkin Elmer) were prepared and run according to the manufacturer's instructions. Subsequently, fluorescence signal detection in a microplate reader was measured (EnVision® Multilabel Reader, Perkin Elmer).
(§5) Percentage inhibition was calculated per cytokine by normalising the sample data to the high and low controls used within each plate (+/− LPS respectively). Percentage inhibition was then plotted against compound concentration and the 50% inhibitory concentration (IC50) was determined from the resultant concentration-response curve.

[2] = system: NRF2 (nuclear factor erythroid 2-related factor 2); assay: NRF2 +/-GSH activation assay (DiscoverX PathHunter NRF2 translocation kit, U2OS cells); type: cell-based; conditions: for Emax (%) +GSH / Emax (%) −GSH: normalised to dimethyl fumarate high control
[3] = Hepatocyte stability assay, human; type: in vitro ADME; conditions: human, cryopreserved hepatocytes, 10 μM compound, read-out: T½
From the text: (§6) Defrosted cryo-preserved hepatocytes (viability >70%) were used to determine the metabolic stability of a compound via calculation of intrinsic clearance (Clint; a measure of the removal of a compound from the liver in the absence of blood flow and cell binding). Clearance data are particularly important for in vitro work as they can be used in combination with in vivo data to predict the half-life and oral bioavailability of a drug.
(§7) The metabolic stability in hepatocytes assay involves a time-dependent reaction using both positive and negative controls. The cells were pre-incubated at 37° C. and spiked with test compound (and positive control); samples were taken at pre-determined time intervals were analysed to monitor the change in concentration of the initial drug compound over 60 minutes. A buffer incubation reaction (with no hepatocytes present) acted as a negative control and two cocktail solutions, containing compounds with known high and low clearance values (verapamil/7-hydroxycoumarin and propranolol/diltiazem), acted as positive controls. • 1. The assay was run with a cell concentration of 0.5×10^6 cells/mL in Leibovitz buffer. • 2. All compounds and controls were run in duplicate. • 3. Compound concentration was 10 μM. • 4. All compounds and controls were incubated with both cells and buffer to show turnover was due to hepatic metabolism. • 5. All wells on the incubation plate had 326.7 μL of either cells or buffer added. • 6. Prior to assay, cell and buffer-only incubation plates were preincubated for 10 mins at 37° C. • 7. The assay was initiated by adding compounds, 3.3 μL of 1 mM in 10% DMSO-90% Buffer; final DMSO concentration was 0.1%. • 8. Samples were taken at regular timepoints (0, 5, 10, 20, 40, 60 min) until 60 mins. • 9. Sample volume was 40 μL and was added to 160 μL of crash solvent (acetonitrile with internal standard) and stored on ice. • 10. At the end of the assay, the crash plates were centrifuged at 3500 rpm for 20 mins at 4° C. • 11. 80 μL of clear supernatant was removed and mixed with 80 μL of deionised water before being analysed by LC-MS/MS.
(§8) Raw LC-MS/MS data was exported to, and analysed in, Microsoft Excel for determination of intrinsic clearance. The percentage remaining of a compound was monitored using the peak area of the initial concentration as 100%. Intrinsic clearance and half-life values were calculated using a graph of the natural log of percentage remaining versus the time of reaction in minutes. Half-life (min) and intrinsic clearance (Clint in μL min^−1 10^−6 cells) values were calculated using the gradient of the graph (the elimination rate constant, k) and Equations 1 and 2.

human hepatocytes = assay: Hepatocyte stability assay, human; type: in vitro ADME; conditions: 10 μM compound
From the text: as §6, §7, §8

mouse hepatocytes = assay: Hepatocyte stability assay, mouse; type: in vitro ADME; conditions: 10 μM compound
From the text: as §6, §7, §8

[4] = system: IL-6 cytokine output from THP-1s; assay: THP-1 AlphaLISA IL-6 cytokine assay; type: cell-based; conditions: LPS then nigericin, Table 1
Experimental: as §1, §2, §3, §4, §5

[5] = Homo sapiens, THP-1, differentiated THP-1 cells, LPS then nigericin, Table 1
[6] = differentiated THP-1 cells, LPS then nigericin, Table 1
[7] = Homo sapiens, THP-1, differentiated THP-1 cells

pIC50 [1, 5] | EC50 ([2]; +GSH) | EC50 ([2]; −GSH) | half-life at 10 μM [3] [h] | Clint (μL min^−1 10^−6 cells) (human hepatocytes) | Clint (μL min^−1 10^−6 cells) (mouse hepatocytes) | T½ (mouse hepatocytes) [h] | T½ (human hepatocytes) [h] | pIC50 [1, 6] | pIC50 ([4]; differentiated THP-1 cells) | pIC50 [4, 7] | pIC50 ([1]; Homo sapiens, THP-1, differentiated THP-1 cells, Table 2, compounds of formula (XVI)) | Structure (SMILES) | Emax (%) +GSH ([2]; +GSH) | Emax (%) −GSH ([2]; −GSH)
4.91 | 19.5 µM | 10.8 µM | 2.33 | 11 | 431 | 0.05 | – | – | – | – | – | C=C(CC(=O)OC1CCc2cc(Cl)c(Cl)cc21)C(=O)OCC(=O)O (single isomer, unassigned; enantiomer 1) [Example 5, 2-((4-((5,6-dichloro-2,3-dihydro-1H-inden-1-yl)oxy)-2-methylene-4-oxobutanoyl)oxy)acetic acid (Enantiomer 1)] | 246% | 280%
5.62 | – | – | 2.75 | 9 | 51 | 0.4 | – | – | – | – | – | C=C(CC(=O)OC1CCc2c(Br)cc(F)cc21)C(=O)OCC(=O)O (single isomer, unassigned; enantiomer 1) [Example 15, 2-((4-((4-bromo-6-fluoro-2,3-dihydro-1H-inden-1-yl)oxy)-2-methylene-4-oxobutanoyl)oxy)acetic acid (Enantiomer 1)] | – | –
5.66 | 10.1 µM | 18.1 µM | – | 4 | 37 | 0.683 | 5.58 | – | – | – | – | C=C(CC(=O)OC1CCc2c(Cl)cc(F)cc21)C(=O)OCC(=O)O (single isomer, unassigned; enantiomer 1) [Example 19, 2-((4-((4-chloro-6-fluoro-2,3-dihydro-1H-inden-1-yl)oxy)-2-methylene-4-oxobutanoyl)oxy)acetic acid (Enantiomer 1)] | 48% | 224%
– | 15.8 µM | 9.8 µM | – | 16 | >460 | <0.05 | 1.55 | 5.25 | 5.44 | – | – | C=C(CC(=O)OC1CCc2c(Cl)cc(Cl)cc21)C(=O)OCC(=O)O (single isomer, unassigned; enantiomer 2) [Example 3, 2-((4-((4,6-dichloro-2,3-dihydro-1H-inden-1-yl)oxy)-2-methylene-4-oxobutanoyl)oxy)acetic acid (Enantiomer 2)] | 211% | 229%
– | 17.4 µM | 8.3 µM | – | 8 | 69 | 0.317 | 3.45 | 5.00 | – | – | – | C=C(CC(=O)OC1CCc2cc(Cl)c(Cl)cc21)C(=O)OCC(=O)O (single isomer, unassigned; enantiomer 2) [Example 6, 2-((4-((5,6-dichloro-2,3-dihydro-1H-inden-1-yl)oxy)-2-methylene-4-oxobutanoyl)oxy)acetic acid (Enantiomer 2)] | 215% | 242%
– | 20.6 µM | 8.1 µM | – | 4 | 61 | 0.35 | 7.13 | 4.93 | – | – | – | C=C(CC(=O)OC1CCc2cc(Cl)cc(Cl)c21)C(=O)OCC(=O)O (single isomer, unassigned; enantiomer 2) [Example 9, 2-((4-((5,7-dichloro-2,3-dihydro-1H-inden-1-yl)oxy)-2-methylene-4-oxobutanoyl)oxy)acetic acid (Enantiomer 2)] | 204% | 244%
– | 31.8 µM | 12.9 µM | – | 11 | >460 | <0.05 | 2.08 | 5.85 | – | 5.41 | – | C=C(CC(=O)OC1CCc2c(Cl)cc(F)cc21)C(=O)OCC(=O)O (single isomer, unassigned; enantiomer 2) [Example 20, 2-((4-((4-chloro-6-fluoro-2,3-dihydro-1H-inden-1-yl)oxy)-2-methylene-4-oxobutanoyl)oxy)acetic acid (Enantiomer 2)] | 155% | 234%
– | 10.6 µM | 6 µM | – | 29 | >460 | <0.05 | 0.967 | 5.32 | 5.21 | – | – | C=C(CC(=O)OC1CCCc2c(Cl)cc(Cl)cc21)C(=O)OCC(=O)O (single isomer, unassigned; enantiomer 2) [Example 25, 2-((4-((5,7-dichloro-1,2,3,4-tetrahydronaphthalen-1-yl)oxy)-2-methylene-4-oxobutanoyl)oxy)acetic acid (Enantiomer 2)] | 147% | 205%
– | 18.7 µM and 25.9 µM | 5.9 µM and 11.5 µM | – | 10 | 92 | 0.283 | 2.53 | 4.94 | 5.24 | – | – | C=C(CC(=O)OC1CCc2cc(C(F)(F)F)ccc21)C(=O)OCC(=O)O (single isomer, unassigned; enantiomer 2) [Example 29, 2-((2-methylene-4-oxo-4-((5-(trifluoromethyl)-2,3-dihydro-1H-inden-1-yl)oxy)butanoyl)oxy)acetic acid (Enantiomer 2)] | 141% and 175% | 147% and 211%
– | 28.7 µM | 21.6 µM | – | 19 | 393 | 0.067 | 1.35 | 5.10 | 4.69 | – | – | C=C(CC(=O)OC1CCc2ccc(OC(F)(F)F)cc21)C(=O)OCC(=O)O (single isomer, unassigned; enantiomer 2) [Example 30, 2-((2-methylene-4-oxo-4-((6-(trifluoromethoxy)-2,3-dihydro-1H-inden-1-yl)oxy)butanoyl)oxy)acetic acid (Enantiomer 2)] | 182% | 225%
4.84 | > 100 µM | 6 µM | – | – | – | – | – | – | – | 5.03 | – | COC(=O)/C=C/C(=O)OC [dimethyl fumarate, reference compound] | 19% | 100%
< 4.00 | – | – | – | – | – | – | – | – | – | < 4.00 | < 4.00 | C=C(CC(=O)OC)C(=O)OC [dimethyl itaconate, reference compound] | – | –
